Legend:
Assay type in all cases: functional, Zucker
Rattus norvegicus [1] = assay: Antidyslipidemic activity in ZDF rat assessed as HDL level at 0.3 mg/kg for 9 days by FPLC analysis (reference value: 48.3 mg/dL)
Rattus norvegicus [2] = assay: Antidyslipidemic activity in ZDF rat assessed as LDL/IgHDL level at 0.3 mg/kg for 9 days by FPLC analysis (reference value: 17.8 mg/dL)
Rattus norvegicus [3] = assay: Antidyslipidemic activity in ZDF rat assessed as VLDL level at 0.3 mg/kg for 9 days by FPLC analysis (reference value: 35 mg/dL)

## CN(CCOc1ccc(CC2SC(=O)NC2=O)cc1)c1ccccn1 (stereo not drawn) [ROSIGLITAZONE]
Rattus norvegicus [1]
  Activity: 61.3 mg/dL
Rattus norvegicus [2]
  Activity: 19 mg/dL
Rattus norvegicus [3]
  Activity: 26.3 mg/dL

— ChEMBL document CHEMBL3745677, “Discovery of 6-(4-{[5-Cyclopropyl-3-(2,6-dichlorophenyl)isoxazol-4-yl]methoxy}piperidin-1-yl)-1-methyl-1H-indole-3-carboxylic Acid: A Novel FXR Agonist for the Treatment of Dyslipidemia” (J Med Chem, 2015)
